The values below come from patent publication US10370391B2, “Hydrogen peroxide-activable, anti-oxidant compounds and methods using same” (Beth Israel Deaconess Medical Center, Inc., priority 2014, dated 2019).

Data set [1] can be described thus: Activation of BRAP by H2O2, UV spectroscopy (absorbance at 273 nm). The data set is classed as physicochemical. Particulars: after 90 minutes of treatment with H2O2. The procedure: The activation of BRAP by H2O2 was also studied using UV spectroscopy. BRAP was mixed with H2O2 and the change in UV absorbance was monitored over time.
BRAP was dissolved in PBS (pH 7.4) at a concentration of 1 mM and was incubated at 37° C. in the presence of 100 μM of H2O2. The concentration of HBA generated from BRAP was measured using a UV spectrometer at appropriate time points.

In data set [2] the test system is mouse macrophage (RAW 264.7) cells stimulated by LPS. Kind of data set: Intracellular ROS generation in LPS-stimulated macrophages (DCFH-DA, flow cytometry). In kind it is cell-based. Particulars: BRAP 0.25 mM, compared with 0.5 mM of HBA; LPS 1 μg/mL. The method, then:
FIG. 4, comprising FIGS. 4A-4F, is a set of graphs, bar graphs and images illustrating anti-oxidant and anti-inflammatory effects of BRAP in vitro. […] The generation of ROS was monitored by flow cytometry as an indicator of DCF fluorescence. Fluorescence was analyzed in 10,000 cells with excitation at 480 nm and emission at 530 nm. FIG. 4C: Protective effect of BRAP on H2O2— stimulated adult rat cardiomyocytes. V=vehicle, *<0.05 vs. V+H2O2 (n=4). […] (n=4/group).
The anti-oxidant activities of BRAP were examined using mouse macrophage (RAW 264.7) and fibroblast (NIH/3T3) cells stimulated by LPS (lipopolysaccharide) (FIGS. 4A-4B). Intracellular ROS production in the stimulated cells was analyzed by flow cytometry using DCFH-DA ([…]-diacetate), which can be oxidized by the action of various intracellular oxidants such as H2O2 and hydroxyl radical to become fluorescent […] (DCF) (Kim, et al., 2011, Biomat. 32:3021; Cho, et al., 2012, Adv. Funct. Mat. 22:4038). Untreated cells have no significant DCF fluorescence.

The subject of data set [3] is mouse embryonic fibroblast (NIH 3T3) cells. Kind of data set: MTT cytotoxicity assay, NIH 3T3. In kind it is cell-based. To be noted: concentrations as high as 5 mM, 24 hours of incubation. The procedure:
(§1) FIG. 8, comprising FIGS. 8A-8B, is a set of bar graphs illustrating biocompatibility profiles of BRAP assessed by MTT assay in human embryonic kidney (HEK 293) cells (FIG. 8A) and mouse embryonic fibroblast (NIH 3T3) cells (FIG. 8B).
(§2) 3-(4,5-Dimethylthiazil-2yl)-2,5-diphenyltetrazolium bromide (MTT) assay was performed to evaluate the cytotoxicity of BRAP. NIH 3T3 cells were cultured at a density of 1×10^5 cells/well in a 24 well plate, and RAW 264.7 cells and HEK cells were also cultured at a density of 2×10^5 cells/well in a 24 well plate. Cells were incubated for 24 hours to reach ˜80% confluency. Cells were treated with various amount of BRAP and incubated for 24 hours. Each well was given 100 μL of MTT solution and was incubated for 4 h. 200 μL of dimethyl sulfoxide (DMSO) were added to each well to dissolve the resulting formazan crystals. After 10 min incubation, the absorbance at 570 nm was measured using a microplate reader (Biotek Instruments, Winooski, Vt.). The cell viability was determined by comparing the absorbance of BRAP treated cells that of control cells.
(In general: Tetrazolium assays rely on reduction of a dye to a coloured formazan, in cell work by metabolically active cells.)

The test system of data set [4] is human embryonic kidney (HEK 293) cells. Kind of data set: MTT cytotoxicity assay, HEK 293. The data set is classed as cell-based. To be noted: concentrations as high as 5 mM, 24 hours of incubation. The procedure:
as §1, §2

SMILES strings stand for the structures.

On to `CC1(CO)COB(c2ccc(CO)cc2)OC1` [BRAP, (4-(5-(hydroxymethyl)-5-methyl-1,3,2-dioxaborinan-2-yl)phenyl)methanol], for which the “change in UV absorbance (HBA generation)” value in data set [1] is on record as “no further increase in UV absorbance”. Moreover, the “inhibition of LPS-induced ROS generation” value in data set [2] was “significantly stronger inhibitory effects”. The “cytotoxicity (MTT)” value in data set [3] and in data set [4] was “no significant cytotoxicity” each time.
